The values that follow come from patent US20030162734A1, “Modulation of DENN-MADD expression and interactions for treating neurological disorders” (priority 2001, published 2003).

Assay [1] has as its system DENN. Put plainly: Western blot of endogenous DENN in stressed neuroblastoma cultures. Format: cell-based, mouse. Conditions: for DENN expression in cultures treated with oxidative stress factors: data not shown. As for the experimental part: (§1) A) NSC19 and N2A cells were exposed to 0.1% BSA (Control) or 20 μM fibrillar Aβ(1-40) for 48 h. Cell extracts (100 μg) were immunoblotted with DENN antibody and reprobed with actin antibody. DENN reactive bands appear at ˜200 kD and ˜140 kD. DENN protein expression is higher in NSC19 relative to N2A cells. Aβ exposure dramatically reduces DENN protein expression. Similar results were obtained in three independent experiments. B) Total RNA from Control and Aβ exposed N2A cultures was extracted and RT-PCR using either DENN or actin specific primers was performed. […] Results are representative of three independent experiments. C) Primary rat hippocampal neurons were exposed to 25 μM Aβ(1-42) for 24 h, fixed in 4% PFA and stained with antibodies specific for DENN, phospho-JNK (P-JNK) and counterstained with Hoechst 33342 for nuclei.
NSC 19 cells were harvested after the appropriate treatments by scraping into cold PBS and centrifuging at 1500 ×g for 5 min at 4° C. Cells were then lysed in buffer A (20 mM Tris-Cl, pH 7.5, 1% Triton X-100, 0.5% NP-40, 0.1 M NaCl, 20 mM β-glycerophosphate, 2 mM EDTA, 2 mM sodium pyrophosphate, 10% glycerol, 10 μg/ml leupeptin and 2 mM phenylmethylsulfonyl fluoride) for 20 min on ice followed by four 5-second sonication bursts on ice. Lysates were centrifuged at 14,000 ×g for 10 min at 4° C. Protein concentrations were measured by the Bradford (1976) assay using bovine serum albumin (BSA) standards. Approximately 50 μg of cell lysates were mixed with 2Xsample buffer and boiled for 5 min. Samples were resolved by 10% SDS-polyacrylamide gel electrophoresis (PAGE), transferred to nitrocellulose membranes, blocked in 5% skim milk and 1% BSA in 1XTBS, and incubated overnight at 4° C. with primary antibody at indicated dilutions. Blots were then washed with TBS buffer containing 0.15% Tween 20 (washing buffer), incubated with a 1:1000 dilution of anti-mouse or anti-rabbit IgG-conjugated horseradish peroxidase for 1 h at room temperature, washed again and processed by ECL detection (Amersham). […]

Assay [2] has as its system JNK3. Conditions: cited from earlier work.
In assay [3] the test system is neuronal PC12 cells and sympathetic neurons. Conditions: cited from earlier work.
Assay [4] has as its system JNK. As to the kind of experiment: JNK immunoprecipitation in vitro kinase assay (GST-c-Jun substrate) from Aβ-exposed N2A clones. Type of assay: cell-based, murine. The note with it: 1 μM CEP11004 with 25 μM Aβ(1-42), 24 h; N2A clones expressing GFP or DENN. As for the experimental part: For kinase assays, cells were exposed to 25 μM Aβ(1-40) in the absence or presence of 1 μM CEP11004 for the specified duration. Cell extracts were prepared, incubated with 5 μl JNK antibody for 4 h at 4° C. and precipitated with 60 μl 50% slurry protein A/G sepharose overnight at 4° C. Immunoprecipitates were washed, then incubated with 1 μg GST-cJun (1-79) and 50 μM ATP in 40 μl for 30 min at 30° C. Reactions were terminated with 40 μl Laemmli buffer, boiled for 4 min, centrifuged and 40 μl was loaded onto 10% SDS-PAGE, transferred to nitrocellulose and probed with phospho-c-Jun (Ser73) antibody.
N2A clones expressing GFP or DENN were exposed to 25 μM Aβ(1-42) either in the absence or presence of 1 μM CEP11004. Previously, inhibitiori of Aβ-induced cell death in neuronal PC12 cells and sympathetic neurons required less than 300 nM CEP1347 (Troy et al., 2001). After 24 h Aβ exposure, JNK was immunoprecipitated from cell extracts and incubated with GST-c-Jun substrate and ATP in an in vitro kinase assay. The reactions were immunoblotted with antibody specific to phosphorylated c-Jun. […] Thus, reduction of cell death and JNK activity by JNK inhibitors in DENN overexpressing cell cultures supports DENN involvement in c-Jun activation and cellular apoptosis.

The subject of assay [5] is mouse primary hippocampal neurons. Put plainly: TUNEL cell death assay in primary hippocampal neurons. Format: cell-based. Conditions: for Aβ-induced cell death (TUNEL positive cells): CEP11004 with 25 μM Aβ(1-42), 24 h, Control-AS or DENN-AS treated hippocampal cultures. As for the experimental part: Primary mouse and rat hippocampal neurons were prepared from newborn C57B1/6 mouse or Sprague-Dawley rat pups. Briefly, hippocampi were dissected out, minced and digested with 100 U papain and 0.2 μg/ml DNaseI. Following digestion, cells were 'triturated with fire-polished Pasteur pipets and centrifuged in media containing 20 μg/ml BSA. Cells were plated on collagen-coated or poly-lysine coated plates at a density of 3×10^6 cells/ml in Neurobasal medium with B27 supplement and antibiotics (Life Technologies, Gaithersburg, Md.). One day after plating, cells were exposed to 5 μM cytosine arabinoside for 4 d to kill dividing cells. Experiments were performed after 6-8 days in vitro (DIV).
(§2) (PI) for cell death or GFP and phycoerythrin (PE)-conjugated annexin V for early apoptosis. The percentage of cell death was quantified as those cells expressing GFP and either annexin V or 7-AAD staining relative to total GFP expressing cells. Experiments were performed in triplicate with 10,000 events counted. TUNEL staining was performed according to manufacturer's instructions (Roche).
To assess cell death in neuronal cultures exposed to anti-sense oligonucleotides and Aβ, TUNEL staining was performed (FIG. 9B). […] However, due to the increased TUNEL staining with DENN-AS treated cultures, the overall cell death with Aβ was 10-15% greater in these cultures (FIG. 9C). DENN-AS treatment alone increased cell death by 20%. […] Furthermore, the level of cell death observed with Aβ was abrogated by exposing neuronal cultures to 1 βM CEP11004.

Assay [6] deals with JNK. The note with it: at 10 μM; cited from earlier work.
For assay [7], the system named is NSC19 cells. As to the kind of experiment: Annexin V FACS apoptosis assay, NSC19 cells overexpressing DENN or DENN mutants, Aβ(1-40) with or without SB203580. Conditions: 10 μM SB203580 with Aβ(1-40). Format: cell-based, mouse. An excerpt: In contrast to primary CNS cultures, NSC19 are more readily transfectable and highly responsive to apoptosis (Smirnova et al., 1998; Citron et al, 1997). Cells were maintained in high glucose Dulbecco's Modified Eagle's Medium (DMEM) (GIBCO-BRL/Life Technologies, Rockville, Md.) supplemented with 10% fetal bovine serum (FBS) and 1% streptomycin/penicillin. Neuro2A cells (CCL-131), C0S7 (CRL-1651) and human embryonic kidney 293 (CRL-1573) cells were acquired from ATCC. Murine neuroblastoma Neuro2A (N2A) were grown in MEM supplemented with 10% FBS, while COS7 and 293 were maintained in DMEM supplemented with 10% FBS. Cells were plated (5 ×10^5 cells/ml) in 35-mm dishes and transfected with 1 μg total DNA using Effectene or SuperFect (Qiagen) as described by the manufacturer. […]
Cells were analyzed by fluorescence-activated cell sorting (FACS) analysis on a FACSTAR PLUS (Becton-Dickinson) and analyzed with Cell Quest software. […]
(PI) for cell death or GFP and phycoerythrin (PE)-conjugated annexin V for early apoptosis. The percentage of cell death was quantified as those cells expressing GFP and either annexin V or 7-AAD staining relative to total GFP expressing cells. Experiments were performed in triplicate with 10,000 events counted. […]

The subject of assay [8] is NSC19 cells. Put plainly: FACS cell death assay (GFP and PI positive cells) after Aβ(1-40) exposure. Type of assay: cell-based, mouse. Conditions: GFP-expressing NSC19 cultures, Aβ for 48 h. On the procedure:
Lyophilized, HPLC purified β-amyloid, Aβ25-35, Aβ1-40 , Aβ1-42 and Aβ40-1 were obtained from either Sigma Chemical Co., U.S. Peptide (Fullerton, Calif.) or Bachem (Torrance, Calif.), respectively. Peptides were reconstituted in double-distilled H2O at 10 mM Aβ. To age the β-amyloid in vitro and produce aggregated, fibrillar Aβ, an aliquot of the Aβ stock solution was dissolved at the indicated concentration in culture medium and incubated at 37° C. for 3 to 5 days. Cells were incubated with the appropriate Aβ peptide concentration for the indicated times and examined for immunofluorescence or cell death assay.
Cells were analyzed by fluorescence-activated cell sorting (FACS) analysis on a FACSTAR PLUS (Becton-Dickinson) and analyzed with Cell Quest software. FACS analysis for two color analysis used GFP and either 7-amino-actinomycin (7-AAD) or propidium iodide
as §2
Neurotoxicity induced by Aβ(1-40) exposure was further examined using clonal cells expressing GFP-fused mutant forms of DENN. […]

Assay [9] deals with DENN. Put plainly: RT-PCR of DENN RNA in Aβ-exposed N2A cultures. Format: cell-based, murine. Conditions: N2A cells. On the procedure: as §1
Total RNA was purified using the RNeasy miniprep kit (Qiagen) and resuspended in 50 μt RNase free water. For each RT-PCR, 1 μg RNA was subjected to One-Step RT-PCR using Omniscript and Sensiscript Reverse transcriptases, HotStarTaq DNA polymerase and 0.5 μM of DENN primers: sense, SEQ ID NO: 6: 5′-[…]-3′ and antisense, SEQ ID NO: 1: 5′-[…]-3′, for 30 cycles with the following conditions: 94° C., 30 s; 60° C., 1 min; 72° C., 1 min. Human and murine actin prim were supplied by Clontech.
RNA expression was compared in N2A cells (FIG. 6B).

“Also recorded” adds a separate entry of the source.

For `OO` [hydrogen peroxide], the “DENN expression in cultures treated with oxidative stress factors” value in assay [1] is “reduction in DENN expression”.

Turning to `CCSCc1ccc2c(c1)c1c3c(c4c5cc(CSCC)ccc5n5c4c1n2[C@H]1C[C@](O)(C(=O)OC)[C@]5(C)O1)CNC3=O` [CEP1347], in [2], the JNK3 activation result is “inhibit JNK3 activation”. Moreover, the “concentration required for inhibition of Aβ-induced cell death” value in assay [3] is reported as “less than 300 nM”.

As to `CCSCc1ccc2c(c1)c1c3c(c4c5cc(CSCC)ccc5n5c4c1n2C1C[C@](O)(C(=O)OC)[C@]5(C)O1)CNC3=O` [CEP11004], the “JNK activity (c-Jun phosphorylation)” value in assay [4] was “four-fold; also recorded: inhibits Aβ-induced c-Jun phosphorylation”. The “effect on DENN AS-induced cell death” value in assay [5] (CEP11004, DENN-AS treated hippocampal cultures) is “little effect”. For the same compound, the “Aβ-induced cell death (TUNEL positive cells)” value in [5] is listed as “abrogated”; in [5] (listed as CEP1004), “inhibits effect of Aβ-induced cell death”.

Turning to `C[S+]([O-])c1ccc(-c2nc(-c3ccc(F)cc3)c(-c3ccncc3)[nH]2)cc1` (centres unmarked) [SB203580, 4-(4-fluorophenyl)-2-(4-methylsulfinylphenyl)-5-(4-pyridyl)-1H-imidazole], the JNK activity inhibition result in [6] was “JNK activity is also inhibited”. Besides, in assay [7] (NSC19 DENN-JBD transfectants, p<0.05), the “cell death/apoptosis in DENN-JBD transfected cells with Aβ/SB203580 co-treatment” value is “reproducible increase in cell death; also recorded: slight increase in apoptosis”. For the same compound, the “apoptotic response (GFP and annexin V positive cells) to Aβ in cells overexpressing DENN or DENN-CT” value in assay [7] (NSC19 cells overexpressing DENN or DENN-CT, p<0.01) is “significantly attenuated apoptotic response; also recorded: decreased”.

In the case of “Aβ(1-40): β-amyloid peptide 1-40, aged in vitro to aggregated, fibrillar form”, in assay [8], the “increase in cell death after Aβ exposure” value is reported as “five-fold”.

With `N[C@@H](CCC(=O)O)C(=O)O` [glutamate], the “DENN expression in cultures treated with oxidative stress factors” value in assay [1] was “reduction in DENN expression”.

With “Aβ: β-amyloid peptide; per FIG. 6 legend 20 μM fibrillar Aβ(1-40)”, the “reduction of endogenous DENN protein” value in assay [1] (NSC19 and N2A cells, 20 μM fibrillar Aβ(1-40), 48 h) is recorded as “approximately 3 fold”. Also, in [9], the “reduction in DENN RNA expression (RT-PCR)” value is on record as “four-fold”.
